Results reported in article PMC7708056 (2020).

What was measured:
[1] = test system: 18GAAA-D1 (NAD+ riboswitch domain 1, WT) (RNA, riboswitch) GGCUUCAACAACCCCGUAGGUGGGGACGAAAGUCAGCGCACCUACUGGAGCC; experiment: ITC; settings: 50 mM NaCl, 10 mM MgCl2; for Kd: 50 mM HEPES pH 7.0, 25 °C (Figure S7 legend: 20 °C), apparent
[2] = test system: 18GAAA-D1 A11U (RNA, riboswitch) GGCUUCAACAUCCCCGUAGGUGGGGACGAAAGUCAGCGCACCUACUGGAGCC; experiment: ITC; settings: 50 mM NaCl, 10 mM MgCl2; 50 mM HEPES pH 7.0, 25 °C (Figure S7 legend: 20 °C), apparent
[3] = test system: 18GAAA-D1 C6U/G47A (RNA, riboswitch) GGCUUUAACAACCCCGUAGGUGGGGACGAAAGUCAGCGCACCUACUAGAGCC; experiment: ITC; settings: 50 mM NaCl, 10 mM MgCl2; 50 mM HEPES pH 7.0, 25 °C; 2 mM ligand stock titrated into 0.1 mM RNA
[4] = test system: 18GAAA-D1 C6G/G47C (RNA, riboswitch) GGCUUGAACAACCCCGUAGGUGGGGACGAAAGUCAGCGCACCUACUCGAGCC; experiment: ITC; settings: 50 mM NaCl, 10 mM MgCl2; 50 mM HEPES pH 7.0, 25 °C; 2 mM ligand stock titrated into 0.1 mM RNA
[5] = test system: 18GAAA-D1 G23A/C37U (RNA, riboswitch) GGCUUCAACAACCCCGUAGGUGAGGACGAAAGUCAGUGCACCUACUGGAGCC; experiment: ITC; settings: 50 mM NaCl, 10 mM MgCl2; 50 mM HEPES pH 7.0, 25 °C; 2 mM ligand stock titrated into 0.1 mM RNA
[6] = test system: 18GAAA-D1 C13U/C14U/G36A/G38A (RNA, riboswitch) GGCUUCAACAACUUCGUAGGUGGGGACGAAAGUCAACACACCUACUGGAGCC; experiment: ITC; settings: 50 mM NaCl, 10 mM MgCl2; 50 mM HEPES pH 7.0, 25 °C; 2 mM ligand stock titrated into 0.1 mM RNA
[7] = test system: 18GAAA-D1 C14G/G36C (RNA, riboswitch) GGCUUCAACAACCGCGUAGGUGGGGACGAAAGUCACCGCACCUACUGGAGCC; experiment: ITC; settings: 50 mM NaCl, 10 mM MgCl2; 50 mM HEPES pH 7.0, 25 °C; 2 mM ligand stock titrated into 0.1 mM RNA
[8] = test system: 18GAAA-D1 C13G/G38C (RNA, riboswitch) GGCUUCAACAACGCCGUAGGUGGGGACGAAAGUCAGCCCACCUACUGGAGCC; experiment: ITC; settings: 50 mM NaCl, 10 mM MgCl2; 50 mM HEPES pH 7.0, 25 °C; 2 mM ligand stock titrated into 0.1 mM RNA
[9] = test system: 18GAAA-D1 A8U (RNA, riboswitch) GGCUUCAUCAACCCCGUAGGUGGGGACGAAAGUCAGCGCACCUACUGGAGCC; experiment: ITC; settings: 50 mM NaCl, 10 mM MgCl2; 50 mM HEPES pH 7.0, 25 °C; 2 mM ligand stock titrated into 0.1 mM RNA
[10] = test system: 18GAAA-D1 A8G (RNA, riboswitch) GGCUUCAGCAACCCCGUAGGUGGGGACGAAAGUCAGCGCACCUACUGGAGCC; experiment: ITC; settings: 50 mM NaCl, 10 mM MgCl2; 50 mM HEPES pH 7.0, 25 °C; 2 mM ligand stock titrated into 0.1 mM RNA
[11] = test system: 18GAAA-D1 A10G (RNA, riboswitch) GGCUUCAACGACCCCGUAGGUGGGGACGAAAGUCAGCGCACCUACUGGAGCC; experiment: ITC; settings: 50 mM NaCl, 10 mM MgCl2; 50 mM HEPES pH 7.0, 25 °C; 2 mM ligand stock titrated into 0.1 mM RNA
[12] = test system: 18GAAA-D1 A10C (RNA, riboswitch) GGCUUCAACCACCCCGUAGGUGGGGACGAAAGUCAGCGCACCUACUGGAGCC; experiment: ITC; settings: 50 mM NaCl, 10 mM MgCl2; 50 mM HEPES pH 7.0, 25 °C; 2 mM ligand stock titrated into 0.1 mM RNA
[13] = test system: 18GAAA-D1 A35C (RNA, riboswitch) GGCUUCAACAACCCCGUAGGUGGGGACGAAAGUCCGCGCACCUACUGGAGCC; experiment: ITC; settings: 50 mM NaCl, 10 mM MgCl2; 50 mM HEPES pH 7.0, 25 °C; 2 mM ligand stock titrated into 0.1 mM RNA
[14] = test system: 18GAAA-D1 G36C (RNA, riboswitch) GGCUUCAACAACCCCGUAGGUGGGGACGAAAGUCACCGCACCUACUGGAGCC; experiment: ITC; settings: 50 mM NaCl, 10 mM MgCl2; 50 mM HEPES pH 7.0, 25 °C; 2 mM ligand stock titrated into 0.1 mM RNA
[15] = test system: 18GAAA-D1 G38C (RNA, riboswitch) GGCUUCAACAACCCCGUAGGUGGGGACGAAAGUCAGCCCACCUACUGGAGCC; experiment: ITC; settings: 50 mM NaCl, 10 mM MgCl2; 50 mM HEPES pH 7.0, 25 °C; 2 mM ligand stock titrated into 0.1 mM RNA
[16] = test system: 18GAAA-D1 G36C/G38C (RNA, riboswitch) GGCUUCAACAACCCCGUAGGUGGGGACGAAAGUCACCCCACCUACUGGAGCC; experiment: ITC; settings: 50 mM NaCl, 10 mM MgCl2; 50 mM HEPES pH 7.0, 25 °C; 2 mM ligand stock titrated into 0.1 mM RNA
[17] = test system: G36A/G38A/A11Ap domain 1 (RNA, riboswitch, 2-aminopurine at 11) GGCUUCAACAACCCCGUAGGUGGGGACGAAAGUCAACACACCUACUGGAGCC; experiment: 2-aminopurine fluorescence
[18] = test system: C13U/C14U/G36A/G38A domain 1, Ap variant (RNA, riboswitch, 2-aminopurine (position not given)) GGCUUCAACAACUUCGUAGGUGGGGACGAAAGUCAACACACCUACUGGAGCC; experiment: 2-aminopurine fluorescence
[19] = test system: 832GAAA-D2 (NAD+ riboswitch domain 2) (RNA, riboswitch) GGUUUCAACAUCCCCGUUCGGCGCUCGAAAGAGGUGGCCGGACUGAAGCC; experiment: X-ray crystallography, 2.1 Å; settings: Mg2+
[20] = test system: 17delU1A-D1 (NAD+ riboswitch domain 1) (RNA, riboswitch) GGCGCAACAUCCCCGCCGGUUGGGCGCAUUGCACUCCGCGCAGUGAACCGGCUGCGCC; experiment: X-ray crystallography, 2.80 Å; settings: Mg2+; co-crystallised with U1A protein
[21] = test system: A11Ap domain 1 (RNA, riboswitch, 2-aminopurine at 11) GGCUUCAACAACCCCGUAGGUGGGGACGAAAGUCAGCGCACCUACUGGAGCC; experiment: 2-aminopurine fluorescence, real time; settings: 100 mM KCl, 50 mM MgCl2; 50 mM KMOPS pH 7.5, 20 °C, 0.5 μM RNA, 0.3 mM ligand
[22] = test system: A11Ap domain 1 (RNA, riboswitch, 2-aminopurine at 11) GGCUUCAACAACCCCGUAGGUGGGGACGAAAGUCAGCGCACCUACUGGAGCC; experiment: 2-aminopurine fluorescence titration; settings: 100 mM KCl, 50 mM MgCl2; 50 mM KMOPS pH 7.5, 20 °C, 0.5 μM RNA, apparent
[23] = test system: U11Ap domain 2 (RNA, riboswitch, 2-aminopurine at 11) GGUUUCAACAUCCCCGUUCGGCGCUCGAAAGAGGUGGCCGGACUGAAGCC; experiment: 2-aminopurine fluorescence titration; settings: 100 mM KCl, 50 mM MgCl2; 50 mM KMOPS pH 7.5, 20 °C, 0.5 μM RNA, apparent

Work on NC(=O)C1=CN([C@@H]2O[C@H](COP(=O)(O)OP(=O)(O)OC[C@H]3O[C@@H](n4cnc5c(N)ncnc54)[C@H](O)[C@@H]3O)[C@@H](O)[C@H]2O)C=CC1 yielded a Kd [1] of 305 ± 46.4 µM.
With NC(=O)c1ccc[n+]([C@@H]2O[C@H](COP(=O)(O)OP(=O)(O)OC[C@H]3O[C@@H](n4cnc5c(N)ncnc54)[C@H](O)[C@@H]3O)[C@@H](O)[C@H]2O)c1 the Kd [1] was 127 ± 9.5 µM, the Kd [2] was 111 ± 24.6 µM and the binding [3] was “no”. The binding [4] was “no”, the binding [5] was “no” and the binding [6] was “no”. For the same compound, the binding [7] was “no”, the binding [8] was “no” and the binding [9] was “no”. The binding [10] was “no”, the binding [11] was “no” and the binding [12] was “no”. The binding [13] was “no”, the binding [14] was “no” and the binding [15] was “no”. The binding [16] was “no”, the binding [17] was “yes” and the binding [18] was “no”. For the same compound, the binding [19] was “yes”, the binding [20] was “yes” and the binding [21] was “yes”.
With NC(=O)c1ccc[n+]([C@@H]2O[C@H](COP(=O)([O-])O)[C@@H](O)[C@H]2O)c1 the binding ([1]; 50 mM HEPES pH 7.0, 25 °C, 2 mM ligand stock titrated into 0.1 mM RNA) was “no”.
Nc1ncnc2c1ncn2[C@@H]1O[C@H](COP(=O)(O)OP(=O)(O)O)[C@@H](O)[C@H]1O was tested, and the Kd [1] was 95.3 ± 0.3 µM, the binding [17] was “yes” and the “KD^ADP” value [22] was 94 ± 3 µM. The “KD^ADP” value [23] was 3400 ± 500 µM.
Compound Nc1ncnc2c1ncn2[C@@H]1O[C@H](COP(=O)(O)OP(=O)(O)OP(=O)(O)O)[C@@H](O)[C@H]1O has a Kd [1] of 90.2 ± 8.6 µM.
